Paper PMC9005681, “Use of AD Informer Set compounds to explore validity of novel targets in Alzheimer's disease pathology” (Alzheimer's & Dementia : Translational Research & Clinical …, 2022)
“And” between values parts separate entries of the source, which are not always exact repeats. Equal entries are not always repeated.

Legend:
Test in all cases: PDSP GPCR panel primary binding assays at 10 μM
[1] = biological target: T1, cloned human or rodent CNS receptors, channels, and transporters (PDSP panel) (Homo sapiens, UniProt P28335); conditions: primary assay
T1 construct: expressed in transfected cells
T1 sequence (P28335 33-458): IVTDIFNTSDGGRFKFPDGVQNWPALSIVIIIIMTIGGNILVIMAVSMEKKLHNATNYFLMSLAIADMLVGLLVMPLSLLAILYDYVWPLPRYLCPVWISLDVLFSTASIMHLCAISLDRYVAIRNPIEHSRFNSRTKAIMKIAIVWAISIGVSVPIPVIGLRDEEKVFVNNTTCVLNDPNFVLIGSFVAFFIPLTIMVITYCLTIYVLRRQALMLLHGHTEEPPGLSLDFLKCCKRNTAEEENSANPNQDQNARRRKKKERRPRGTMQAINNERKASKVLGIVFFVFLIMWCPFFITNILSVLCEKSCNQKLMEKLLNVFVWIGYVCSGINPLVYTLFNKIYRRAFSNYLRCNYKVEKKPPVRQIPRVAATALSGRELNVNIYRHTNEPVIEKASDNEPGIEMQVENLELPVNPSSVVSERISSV
How it was run: (§1)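 Primary screen: 10 μM, quadruplicate, displacement of radio-labeled standard ligand. Hit cut-off >50% mean displacement → secondary 11-point dose-response, triplicate. H3, PBR, GABAA excluded from follow-up.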

[2] = biological target: T2, cloned human or rodent CNS receptors, channels, and transporters (PDSP panel) (Homo sapiens, UniProt P31645); conditions: primary assay; for Inhibition 2: replicate 2; for Inhibition 3: replicate 3
T2 construct: expressed in transfected cells
How it was run: as §1

[3] = biological target: T3, cloned human or rodent CNS receptors, channels, and transporters (PDSP panel) (Homo sapiens, UniProt Q01959); conditions: DAT, primary assay; for Mean %: mean inhibition; for Inhibition 1: replicate 1; for Inhibition 2: replicate 2; for Inhibition 3: replicate 3; for Inhibition 4: replicate 4
T3 construct: expressed in transfected cells
How it was run: as §1

[4] = biological target: T4, cloned human or rodent CNS receptors, channels, and transporters (PDSP panel) (Homo sapiens, UniProt P08173); conditions: primary assay
T4 construct: expressed in transfected cells
T4 sequence (P08173 1-479): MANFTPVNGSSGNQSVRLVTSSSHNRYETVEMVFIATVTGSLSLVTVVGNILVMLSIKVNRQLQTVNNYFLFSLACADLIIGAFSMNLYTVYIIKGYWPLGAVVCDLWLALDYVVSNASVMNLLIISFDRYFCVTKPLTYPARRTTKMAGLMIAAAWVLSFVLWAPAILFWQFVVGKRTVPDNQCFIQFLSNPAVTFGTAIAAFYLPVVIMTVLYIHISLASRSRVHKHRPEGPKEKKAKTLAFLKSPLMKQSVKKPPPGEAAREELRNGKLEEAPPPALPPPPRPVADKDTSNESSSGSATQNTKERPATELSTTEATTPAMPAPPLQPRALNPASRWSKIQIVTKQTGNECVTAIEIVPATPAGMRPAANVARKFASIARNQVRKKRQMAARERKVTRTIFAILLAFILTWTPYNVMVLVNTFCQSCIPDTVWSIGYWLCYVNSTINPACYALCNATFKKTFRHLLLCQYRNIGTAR
How it was run: as §1

[5] = biological target: T5, cloned human or rodent CNS receptors, channels, and transporters (PDSP panel) (Homo sapiens, UniProt P46098); conditions: primary assay
T5 construct: expressed in transfected cells
T5 sequence (P46098 24-478): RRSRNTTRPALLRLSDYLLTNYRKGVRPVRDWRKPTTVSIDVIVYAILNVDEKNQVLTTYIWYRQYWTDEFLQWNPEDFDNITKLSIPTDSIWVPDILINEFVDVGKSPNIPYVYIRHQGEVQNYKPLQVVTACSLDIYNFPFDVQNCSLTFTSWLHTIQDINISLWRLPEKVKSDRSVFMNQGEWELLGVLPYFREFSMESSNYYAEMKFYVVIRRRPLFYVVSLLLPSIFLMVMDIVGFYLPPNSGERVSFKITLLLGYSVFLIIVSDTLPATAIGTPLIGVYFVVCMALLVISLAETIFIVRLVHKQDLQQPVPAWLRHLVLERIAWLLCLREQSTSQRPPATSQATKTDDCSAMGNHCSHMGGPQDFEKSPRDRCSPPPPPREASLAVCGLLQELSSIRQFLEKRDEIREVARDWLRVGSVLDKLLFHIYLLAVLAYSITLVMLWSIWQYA
How it was run: as §1

[6] = biological target: T6, cloned human or rodent CNS receptors, channels, and transporters (PDSP panel) (Homo sapiens, UniProt P25100); conditions: primary assay
T6 construct: expressed in transfected cells
T6 sequence (P25100 1-572): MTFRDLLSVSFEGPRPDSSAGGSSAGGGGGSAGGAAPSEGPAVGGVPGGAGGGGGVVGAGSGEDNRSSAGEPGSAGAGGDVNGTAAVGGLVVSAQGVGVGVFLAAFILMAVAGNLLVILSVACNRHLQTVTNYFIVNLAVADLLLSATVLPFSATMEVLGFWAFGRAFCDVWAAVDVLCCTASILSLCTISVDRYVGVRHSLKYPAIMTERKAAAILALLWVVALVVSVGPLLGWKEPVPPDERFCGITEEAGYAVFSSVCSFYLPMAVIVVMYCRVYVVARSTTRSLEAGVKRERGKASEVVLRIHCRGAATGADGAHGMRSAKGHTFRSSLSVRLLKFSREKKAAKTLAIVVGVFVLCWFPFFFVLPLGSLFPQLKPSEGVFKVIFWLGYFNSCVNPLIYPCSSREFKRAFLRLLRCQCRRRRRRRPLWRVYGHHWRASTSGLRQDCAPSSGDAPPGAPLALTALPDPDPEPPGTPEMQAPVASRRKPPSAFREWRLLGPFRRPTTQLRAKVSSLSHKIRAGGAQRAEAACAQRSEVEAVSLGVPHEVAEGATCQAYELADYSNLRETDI
How it was run: as §1

T3 sequence (Q01959 whole entry): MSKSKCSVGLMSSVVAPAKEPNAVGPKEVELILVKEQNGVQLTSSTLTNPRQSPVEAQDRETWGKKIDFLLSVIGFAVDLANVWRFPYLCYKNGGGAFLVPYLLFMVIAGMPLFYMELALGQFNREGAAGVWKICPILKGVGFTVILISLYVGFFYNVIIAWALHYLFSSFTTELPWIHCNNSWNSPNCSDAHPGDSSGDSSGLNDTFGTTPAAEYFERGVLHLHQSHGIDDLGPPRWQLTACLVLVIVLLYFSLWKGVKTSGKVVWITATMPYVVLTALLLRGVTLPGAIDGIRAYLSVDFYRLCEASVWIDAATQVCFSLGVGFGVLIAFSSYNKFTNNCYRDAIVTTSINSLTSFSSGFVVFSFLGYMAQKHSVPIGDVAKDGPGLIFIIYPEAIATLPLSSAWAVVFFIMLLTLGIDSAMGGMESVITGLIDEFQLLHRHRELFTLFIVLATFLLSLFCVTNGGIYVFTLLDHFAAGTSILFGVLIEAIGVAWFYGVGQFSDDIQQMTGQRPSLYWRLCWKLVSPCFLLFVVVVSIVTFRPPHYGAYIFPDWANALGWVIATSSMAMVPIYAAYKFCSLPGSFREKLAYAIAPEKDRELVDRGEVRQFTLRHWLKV
T2 sequence (P31645 whole entry): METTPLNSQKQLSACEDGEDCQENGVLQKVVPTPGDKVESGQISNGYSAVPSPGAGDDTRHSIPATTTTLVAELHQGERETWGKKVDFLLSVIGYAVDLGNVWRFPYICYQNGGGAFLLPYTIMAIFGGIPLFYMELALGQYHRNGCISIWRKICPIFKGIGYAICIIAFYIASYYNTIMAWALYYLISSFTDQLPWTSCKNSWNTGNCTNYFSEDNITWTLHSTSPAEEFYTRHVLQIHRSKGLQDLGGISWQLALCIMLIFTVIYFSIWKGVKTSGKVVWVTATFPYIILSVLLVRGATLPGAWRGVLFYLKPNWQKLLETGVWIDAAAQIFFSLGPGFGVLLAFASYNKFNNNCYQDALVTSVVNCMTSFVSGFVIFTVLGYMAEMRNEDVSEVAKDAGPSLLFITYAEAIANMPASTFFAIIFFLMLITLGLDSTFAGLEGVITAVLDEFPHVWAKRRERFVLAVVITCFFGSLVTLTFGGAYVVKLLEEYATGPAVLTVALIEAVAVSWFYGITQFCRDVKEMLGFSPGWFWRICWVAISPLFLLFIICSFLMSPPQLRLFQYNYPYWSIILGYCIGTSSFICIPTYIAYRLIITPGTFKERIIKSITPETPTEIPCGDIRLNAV

## CNc1nc(C)nc(N[C@H]2CCC[C@@H](C(=O)NCc3ccc(C#N)cc3C(F)(F)F)C2)n1 [UNC10302679A, GSK2256294A]
[1]; 5-HT2C, mean inhibition
  Mean %: -14.6%
[1]; 5-HT2C, replicate 1
  Inhibition 1: 12.76%
[1]; 5-HT2C, replicate 2
  Inhibition 2: -11.29%
[1]; 5-HT2C, replicate 3
  Inhibition 3: -33.87%
[1]; 5-HT2C, replicate 4
  Inhibition 4: -26.01%
[2]; SERT, mean inhibition
  Mean %: 7.19% and 15.11%
[2]; SERT, replicate 1
  Inhibition 1: 10.02% and 22.3%
[2]; SERT
  Inhibition 2: -5.87% and 16.69%
  Inhibition 3: 7.61% and 10.49%
[2]; SERT, replicate 4
  Inhibition 4: 16.99% and 10.96%
[3]
  Mean %: 54.13%
  Inhibition 1: 56.61%
  Inhibition 2: 53.37%
  Inhibition 3: 54.99%
  Inhibition 4: 51.53%
[4]; M4, mean inhibition
  Mean %: 14.93%
[4]; M4, replicate 1
  Inhibition 1: 10.45%
[4]; M4, replicate 2
  Inhibition 2: 4.02%
[4]; M4, replicate 3
  Inhibition 3: 7.46%
[4]; M4, replicate 4
  Inhibition 4: 37.78%
[5]; 5-HT3, mean inhibition
  Mean %: 8.2%
[5]; 5-HT3, replicate 1
  Inhibition 1: 4.04%
[5]; 5-HT3, replicate 2
  Inhibition 2: 9.4%
[5]; 5-HT3, replicate 3
  Inhibition 3: -1.71%
[5]; 5-HT3, replicate 4
  Inhibition 4: 21.06%
[6]; Alpha1D, mean inhibition
  Mean %: -12.86%
[6]; Alpha1D, replicate 1
  Inhibition 1: -4.16%
[6]; Alpha1D, replicate 2
  Inhibition 2: -21.92%
[6]; Alpha1D, replicate 3
  Inhibition 3: -15.38%
[6]; Alpha1D, replicate 4
  Inhibition 4: -9.98%

## O=c1oc2ccccc2cc1-c1cn2cc(Cc3ccc(F)cc3)sc2n1 [UNC10302680A, iMDK]
[1]; Receptor 5-HT2C, 10 μM
  Inhibition 1: 16.2%
  Inhibition 2: -2.94%
  Inhibition 3: -21.1%
  Inhibition 4: -2.94%
[1]; Receptor 5-HT2C, 10 μM, mean of Inhibition 1-4
  Mean %: -2.7%
[2]; Receptor SERT, 10 μM
  Inhibition 1: -12.44% and -8.39%
  Inhibition 4: -3% and 3.01%
[2]; Receptor SERT, 10 μM, mean of Inhibition 1-4
  Mean %: -8.37% and -12.73%
[3]
  Mean %: 24.58%
  Inhibition 1: 19.55%
  Inhibition 2: 22.26%
  Inhibition 3: 29.6%
  Inhibition 4: 26.9%
[4]; Receptor M4, 10 μM
  Inhibition 1: 4.02%
  Inhibition 2: 16.88%
  Inhibition 3: 25.61%
  Inhibition 4: 10.91%
[4]; Receptor M4, 10 μM, mean of Inhibition 1-4
  Mean %: 14.36%
[5]; Receptor 5-HT3, 10 μM
  Inhibition 1: 1.94%
  Inhibition 2: 26.27%
  Inhibition 3: 17.25%
  Inhibition 4: 14.61%
[5]; Receptor 5-HT3, 10 μM, mean of Inhibition 1-4
  Mean %: 15.02%
[6]; Receptor Alpha1D, 10 μM
  Inhibition 1: -7.71%
  Inhibition 2: -9.56%
  Inhibition 3: -10.98%
  Inhibition 4: -17.23%
[6]; Receptor Alpha1D, 10 μM, mean of Inhibition 1-4
  Mean %: -11.37%

## CCC(=O)N1CCC(NC(=O)Nc2ccc(OC(F)(F)F)cc2)CC1 [UNC10302681A, TPPU]
[1]; 5-HT2C, mean inhibition
  Mean %: -8.1%
[1]; 5-HT2C, replicate 1
  Inhibition 1: 3.44%
[1]; 5-HT2C, replicate 2
  Inhibition 2: -10.8%
[1]; 5-HT2C, replicate 3
  Inhibition 3: -1.96%
[1]; 5-HT2C, replicate 4
  Inhibition 4: -23.07%
[2]; SERT, replicate 1
  Inhibition 1: 16.43% and 21.37%
[2]; SERT
  Inhibition 2: -9.69% and 21.48%
  Inhibition 3: 7.05% and 21.19%
[2]; SERT, replicate 4
  Inhibition 4: 4.97% and 21.78%
[3]
  Mean %: 59.91%
  Inhibition 1: 71.52%
  Inhibition 2: 71.2%
  Inhibition 3: 51.64%
  Inhibition 4: 45.27%
[4]; M4, mean inhibition
  Mean %: 27.22%
[4]; M4, replicate 1
  Inhibition 1: 20.33%
[4]; M4, replicate 2
  Inhibition 2: 6.55%
[4]; M4, replicate 3
  Inhibition 3: 30.66%
[4]; M4, replicate 4
  Inhibition 4: 51.34%
[5]; 5-HT3, mean inhibition
  Mean %: 17.23%
[5]; 5-HT3, replicate 1
  Inhibition 1: 6.76%
[5]; 5-HT3, replicate 2
  Inhibition 2: 16.16%
[5]; 5-HT3, replicate 3
  Inhibition 3: 12.2%
[5]; 5-HT3, replicate 4
  Inhibition 4: 33.8%
[6]; Alpha1D, mean inhibition
  Mean %: -10.94%
[6]; Alpha1D, replicate 1
  Inhibition 1: -5.01%
[6]; Alpha1D, replicate 2
  Inhibition 2: -6%
[6]; Alpha1D, replicate 3
  Inhibition 3: -20.78%
[6]; Alpha1D, replicate 4
  Inhibition 4: -11.97%
